The source of these data is ChEMBL document CHEMBL1201862, “PubChem BioAssay data set” (2004).

Among the test systems are 786-0; A498; A549; COLO 205; HCT-116; HCT-15; HOP-92; MCF7; OVCAR-4; OVCAR-5; PC-3; RPMI-8226; RXF 393; SK-MEL-28; SK-MEL-5; SK-OV-3; SR; SW-620; U-251; UO-31.
Common to all, as to assay: growth of human tumour cells (NCI), 48 h

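Step 1: Grow cells in 96-well plates. Step 2: Expose to compound for 48 hours at 5 concentrations. Step 3: Interpolate endpoints linearly; if unreached, use highest concentration. Here, GI50 denotes the concentration required for 50% inhibition of growth.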 Activity calls are given as the source filed them. Cut-off read from the data, not from the text of the source: active = GI50 up to about 1.1 µM and inactive = higher.

Take `CC(=O)Nc1sc(Br)cc1S(=O)(=O)c1ccc(Cl)cc1`: the GI50 in the experiment with 786-0 was 26.2 µM (inactive); in the experiment on A498, 47.2 µM (inactive); in the experiment on A549 it was 29.2 µM (inactive); in the experiment on COLO 205, > 10 µM (inactive); in the experiment with HCT-116, 26.1 µM (inactive); in the experiment on HCT-15 it was above 10 µM. Besides, the GI50 in the experiment on HOP-92 is 20.1 µM (inactive); in the experiment on MCF7, 12.8 µM (inactive); in the experiment on OVCAR-4, 23.2 µM (inactive); with OVCAR-5 it was 26.2 µM (inactive); in the experiment with PC-3 it was 17.9 µM (inactive); with RPMI-8226, 23.2 µM (inactive). In addition, the GI50 with RXF 393 was 20 µM (inactive); in the experiment with SK-MEL-28, 57.3 µM (inactive); with SK-MEL-5 it was > 10 µM (inactive); in the experiment with SK-OV-3, 43.1 µM (inactive); in the experiment with SR, 14.6 µM (inactive); with SW-620, 71.1 µM (inactive). The GI50 with U-251 was 34.8 µM (inactive); in the experiment with UO-31 it was 22.5 µM (inactive).
On to `c1ccc(COCC23CCN(Cc4ccccc4)C(CC(OCc4ccccc4)C2)S3)cc1` (stereo not given), for which the GI50 in the experiment on 786-0 is > 100 µM (inactive); with A498 it was 39.3 µM (inactive); in the experiment on A549 it was 41.4 µM (inactive); with COLO 205, 35.2 µM (inactive); with HCT-116 it was 42.7 µM (inactive); with HCT-15, 28.6 µM. Moreover, the GI50 in the experiment with HOP-92 is 20.3 µM (inactive); in the experiment on MCF7, 14.8 µM (inactive); in the experiment on OVCAR-4 it was 53.1 µM (inactive); with OVCAR-5 it was 38.2 µM (inactive); in the experiment with PC-3, 31.8 µM (inactive); in the experiment on RPMI-8226 it was 35.2 µM (inactive). The GI50 in the experiment with RXF 393 is > 100 µM (inactive); in the experiment on SK-MEL-28 it was > 100 µM (inactive); in the experiment with SK-MEL-5, 15.8 µM (inactive); with SK-OV-3 it was > 100 µM (inactive); with SR it was 26.6 µM (inactive); with SW-620, > 100 µM (inactive). In addition, the GI50 in the experiment with U-251 is 44.8 µM (inactive); with UO-31 it was 30.2 µM (inactive).
For the compound `CCOC(=O)/C(=C\NCC(OCC)OCC)c1nc2ccccc2[nH]1`, the GI50 with 786-0 was 31.5 µM (inactive); in the experiment with A498, 48.6 µM (inactive); with A549, 42.9 µM (inactive); with COLO 205 it was 16.5 µM (inactive); in the experiment with HCT-116 it was 29.6 µM (inactive); with HCT-15, 10 µM. The GI50 in the experiment with HOP-92 was 35.6 µM (inactive); with MCF7, 30.1 µM (inactive); in the experiment with OVCAR-4, 31.9 µM (inactive); in the experiment with OVCAR-5, 48.6 µM (inactive); in the experiment on PC-3, 24 µM (inactive); in the experiment on RPMI-8226 it was 18.7 µM (inactive). The GI50 is 35.3 µM (inactive) with RXF 393; 26.8 µM (inactive) with SK-MEL-28; 14.5 µM (inactive) in the experiment with SK-MEL-5; 75 µM (inactive) in the experiment with SK-OV-3; 18.6 µM (inactive) in the experiment with SR; 41.4 µM (inactive) with SW-620. Besides, the GI50 with U-251 was 35.5 µM (inactive); with UO-31 it was 13.3 µM (inactive).
